The values below come from US12649750B2, “Macrocyclic compounds, compositions, and methods of using thereof” (Sionna Therapeutics Inc., priority 2022, dated 2026).

In one experiment the target is T1, NBD1 (Homo sapiens, UniProt P13569).
T1 construct: Purified recombinant NBD1 was produced using previously described methods; made in house
Put plainly: Aggregation analysis using differential static light scattering (DSLS), thermal stability of NBD1 (ΔTagg). Particulars: ΔTagg versus DMSO control, NBD1 0.2 mg/ml. Format: binding. The method, boiled down: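 Read-out is ΔTagg: the aggregation temperature, taken at the inflection of the light-scattering curve, less the average of DMSO control wells. Recombinant NBD1 (0.2 mg/ml, pH7.6 buffer containing 2 mM ATP) with test compound was heated at 1° C. per minute up to 70° C.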

Another experiment deals with T2, CFTR (Homo sapiens, UniProt P13569, DEL508-508).
T2 construct: Primary human bronchial epithelial cells from a ΔF508 homozygous CF donor; host or cells: primary human bronchial epithelial cells (CF-HBE), ΔF508 homozygous donor
T2 sequence (P13569 with tags, fused parts or gaps DEL508-508): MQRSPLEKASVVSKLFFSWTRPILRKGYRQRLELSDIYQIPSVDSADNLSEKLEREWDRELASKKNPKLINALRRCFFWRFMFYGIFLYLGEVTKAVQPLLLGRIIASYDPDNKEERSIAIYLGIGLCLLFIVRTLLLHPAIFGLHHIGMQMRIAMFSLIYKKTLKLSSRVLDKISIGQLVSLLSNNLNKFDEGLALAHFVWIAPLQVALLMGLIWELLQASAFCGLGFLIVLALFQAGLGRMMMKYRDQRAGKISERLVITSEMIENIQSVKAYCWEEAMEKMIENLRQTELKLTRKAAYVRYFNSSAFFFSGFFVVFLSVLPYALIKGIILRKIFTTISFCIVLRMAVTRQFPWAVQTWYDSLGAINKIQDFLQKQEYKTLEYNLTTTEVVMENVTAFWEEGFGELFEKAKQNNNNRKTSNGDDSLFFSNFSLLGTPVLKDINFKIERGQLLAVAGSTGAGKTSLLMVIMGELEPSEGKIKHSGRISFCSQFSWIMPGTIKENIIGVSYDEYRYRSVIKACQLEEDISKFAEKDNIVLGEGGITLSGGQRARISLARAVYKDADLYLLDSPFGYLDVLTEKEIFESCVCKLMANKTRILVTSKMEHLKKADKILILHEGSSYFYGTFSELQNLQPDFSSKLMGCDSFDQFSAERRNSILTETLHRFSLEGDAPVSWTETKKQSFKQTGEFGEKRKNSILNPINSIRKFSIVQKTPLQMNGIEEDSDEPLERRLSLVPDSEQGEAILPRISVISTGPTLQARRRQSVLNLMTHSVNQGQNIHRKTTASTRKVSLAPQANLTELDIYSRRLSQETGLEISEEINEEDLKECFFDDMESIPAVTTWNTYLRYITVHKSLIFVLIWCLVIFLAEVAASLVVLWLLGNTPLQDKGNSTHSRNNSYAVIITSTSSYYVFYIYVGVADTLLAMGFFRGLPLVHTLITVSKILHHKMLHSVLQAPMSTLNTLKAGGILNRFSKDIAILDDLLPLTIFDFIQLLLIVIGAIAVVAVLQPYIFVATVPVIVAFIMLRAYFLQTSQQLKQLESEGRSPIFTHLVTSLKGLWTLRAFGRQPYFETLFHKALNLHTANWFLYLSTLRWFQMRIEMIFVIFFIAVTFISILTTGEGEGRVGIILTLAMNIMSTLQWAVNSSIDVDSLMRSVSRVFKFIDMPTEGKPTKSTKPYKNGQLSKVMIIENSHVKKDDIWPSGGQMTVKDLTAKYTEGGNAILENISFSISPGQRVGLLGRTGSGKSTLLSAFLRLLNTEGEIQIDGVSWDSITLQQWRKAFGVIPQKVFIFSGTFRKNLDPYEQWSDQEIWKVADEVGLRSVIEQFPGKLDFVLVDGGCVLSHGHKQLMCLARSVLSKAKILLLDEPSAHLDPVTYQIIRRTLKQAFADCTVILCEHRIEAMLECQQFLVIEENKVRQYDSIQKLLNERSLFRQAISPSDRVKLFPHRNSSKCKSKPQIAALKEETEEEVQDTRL
Put plainly: TECC24 AUC fold over DMSO @10 μM, CFTR-mediated transepithelial chloride transport in CF-HBE cells. As to conditions: test agent AUC divided by DMSO vehicle AUC, primary CF-HBE cells, ΔF508 homozygous donor, 48 hours incubation. The class given is cell-based. The protocol:
Example 387. TECC24 AUC Fold Over DMSO @10 μM
The effects of a test agent on CFTR-mediated transepithelial chloride transport is measured using TECC24 recording analysis. Test agents are solubilized in DMSO. Solubilized test agents are mixed with incubation medium containing DMEM/F12, Ultroser G (2%; Crescent Chemical, catalog #67042), Hyclone Fetal Clone II (2%; GE Healthcare, catalog #SH30066.02), bovine brain extract (0.25%; Lonza, catalog #CC-4098), insulin (2.5 μg/mL), IL-13 (10 ng/mL), hydrocortisone (20 nM), transferrin (2.5 μg/mL), triiodothyronine (500 nM), ethanolamine (250 nM), epinephrine (1.5 μM), phosphoethanolamine (250 nM), and retinoic acid (10 nM). Primary human bronchial epithelial cells from a ΔF508 homozygous CF donor (CF-HBE cells; from University of North Carolina Cystic Fibrosis Tissue Procurement Center), grown on Transwell HTS 24-well cell culture inserts (Costar, catalog #3378), are exposed to test agents or controls dissolved in incubation medium. The CF-HBE cells are cultured at 36.5° C. for 48 hours before TECC24 recordings are performed in the presence or absence of test agent, a positive control or vehicle (DMSO).
Following incubation, the transwell cell culture inserts containing the test agent or control-treated CF-HBE cells are loaded onto a TECC24 apparatus (TECC v7 or MTECC v2; EP Design) to record the transepithelial voltage (VT) and resistance (TEER) using 4 AgCl electrodes per well configured in current-clamp mode. The apical and basolateral bath solutions both contain (in mM) 140 NaCl, 5 KCl, 2 CaCl2, 1 MgCl2, 10 Hepes, and 10 glucose (adjusted to pH 7.4 with NaOH). To inhibit basal Na+ absorption, the ENaC inhibitor benzamil (10 μM) is added to the bath. Then, the adenylate cyclase activator, forskolin (10 μM), is added to the bath to activate CFTR. The forskolin-stimulated Cl— transport is halted by addition of CFTR inhibitor-172 (20 μM) to the bath at the end of the experiment to confirm specificity. VT and TEER recordings are digitally acquired at routine intervals using TECC or MTECC software (EP Design). VT and TEER are transformed into equivalent transepithelial Cl— current (IEQ), and the Area Under the Curve (AUC) of the IEQ time course between forskolin and CFTR inhibitor-172 addition is generated using Excel (Microsoft). Efficacy is expressed as the ratio of the test agent AUC divided by vehicle AUC. EC50s based on AUC are generated using the non-linear regression log(agonist) vs. response function in Prism software (Graphpad) with HillSlope fixed=1.
If a test agent increases the AUC of the forskolin-stimulated IEQ relative to vehicle in CF-HBE cells, and this increase is inhibited by CFTR inhibitor-172, then the test agent is considered a CFTR corrector. TECC assay efficacy is expressed as the ratio of the test agent AUC divided by DMSO vehicle AUC. As set forth in Table 2 below, a TECC value less than 12 is marked “A”; a value between 12-20 is marked “B”; a value between 20 and 80 is marked “C”. […]

T1 sequence (P13569 423-646 limits assumed): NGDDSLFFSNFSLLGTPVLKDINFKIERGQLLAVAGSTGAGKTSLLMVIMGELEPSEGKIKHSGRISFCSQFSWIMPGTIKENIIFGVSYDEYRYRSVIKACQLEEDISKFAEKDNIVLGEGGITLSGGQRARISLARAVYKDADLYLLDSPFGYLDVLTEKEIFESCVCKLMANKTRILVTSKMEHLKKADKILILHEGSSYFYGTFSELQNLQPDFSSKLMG

For the compound `[2H]C([2H])([2H])C1(c2cccc(/C=C(\C)C(=O)O)c2)CCCC(C)(C)CS(=O)(=O)CCc2c(c(F)cc3[nH]ccc23)Oc2ccc(F)c(c2)-c2nc1nn2C` (single isomer, unassigned) [Compound 16A, (E)-3-[3-[22,28-difluoro-3,10,10-trimethyl-12,12-dioxo-6-(trideuteriomethyl)-24-oxa-12lambda6-thia-3,4,19,30-tetrazapentacyclo[23.3.1.12,5.015,23.016,20]triaconta-1(29),2(30),4,15,17,20,22,25,27-nonaen-6-yl]phenyl]-2-methyl-prop-2-enoic acid], at NBD1, the “DSLS 3D (100 μM ΔT)” value is “A (an ΔTagg value less than or equal to 5 °C is marked “A”)”. Further, on CFTR, the “TECC (AUC, 10 μM)” value is recorded as “A (a TECC value less than 12 is marked “A”)”.

In the case of `Cn1nc2nc1-c1cc(ccc1F)[S+]([O-])c1c(F)cc3[nH]ccc3c1CCS(=O)(=O)CC(C)(C)CCC[C@]2(C)c1cccc(CCC(=O)O)c1` (single isomer, unassigned) [Compound 215B], the “DSLS 3D (100 μM ΔT)” value at NBD1 is “C (a value greater than 10 °C and less than or equal to 25 °C is marked “C”)”. Also, on CFTR, the “TECC (AUC, 10 μM)” value is “C (a value between 20 and 80 is marked “C”)”.

For the compound `Cn1nc2nc1-c1cc(ccc1F)[S+]([O-])c1c(F)cc3[nH]ccc3c1CCS(=O)(=O)CC(C)(C)CCC[C@]2(C)c1cccc(C[C@H](O)CO)c1` (stereo partly drawn) [Compound 286, (2S)-3-[3-[(6R)-22,28-difluoro-3,6,10,10-tetramethyl-12,12,24-trioxo-12λ6,24λ4-dithia-3,4,19,30-tetrazapentacyclo[23.3.1.12,5.015,23.016,20]triaconta-1(29),2(30),4,15,17,20,22,25,27-nonaen-6-yl]phenyl]propane-1,2-diol], the “DSLS 3D (100 μM ΔT)” value on NBD1 was “C (a value greater than 10 °C and less than or equal to 25 °C is marked “C”)”. The “TECC (AUC, 10 μM)” value on CFTR is “C (a value between 20 and 80 is marked “C”)”.

`C[C@@H](O)Cc1cccc([C@@]2(C)CCCC(C)(C)CS(=O)(=O)CCc3c(c(F)cc4[nH]ccc34)[S+]([O-])c3ccc(F)c(c3)-c3nc2nn3C)c1` (single isomer, unassigned) [Compound 264]: the “DSLS 3D (100 μM ΔT)” value at NBD1 was “C (a value greater than 10 °C and less than or equal to 25 °C is marked “C”)”. The “TECC (AUC, 10 μM)” value on CFTR was “C (a value between 20 and 80 is marked “C”)”.

Regarding `[2H]C([2H])([2H])C1(c2cccc(CC(C)C(=O)O)c2)CCCC(C)(C)CS(=O)(=O)CCc2c(c(F)cc3[nH]ccc23)Oc2ccc(F)c(c2)-c2nc1nn2C` (single isomer, unassigned) [Compound 10A, 3-[3-[22,28-difluoro-3,10,10-trimethyl-12,12-dioxo-6-(trideuteriomethyl)-24-oxa-12lambda6-thia-3,4,19,30-tetrazapentacyclo[23.3.1.12,5.015,23.016,20]triaconta-1(29),2(30),4,15,17,20,22,25,27-nonaen-6-yl]phenyl]-2-methyl-propanoic Acid], the “DSLS 3D (100 μM ΔT)” value at NBD1 was “C (a value greater than 10 °C and less than or equal to 25 °C is marked “C”)”. Besides, the “TECC (AUC, 10 μM)” value at CFTR was “A (a TECC value less than 12 is marked “A”)”.

On to `CC1(C)CCCC(C)(c2cccc(CCC(=O)O)c2)c2c[nH]c(n2)-c2cc(ccc2F)Oc2c(F)cc3[nH]ccc3c2CCS(=O)(=O)C1` (single isomer, unassigned) [Compound 27A, 3-[3-(22,28-difluoro-6,10,10-trimethyl-12,12-dioxo-24-oxa-12lambda6-thia-3,19,30-triazapentacyclo[23.3.1.12,5.015,23.016,20]triaconta-1(29),2,4,15,17,20,22,25,27-nonaen-6-yl)phenyl]propanoic acid], for which the “DSLS 3D (100 μM ΔT)” value on NBD1 is “B (a value above 5 °C and less than or equal to 10 °C is marked “B”)”. In addition, at CFTR, the “TECC (AUC, 10 μM)” value is recorded as “A (a TECC value less than 12 is marked “A”)”.

As to `Cn1nc2nc1-c1cc(ccn1)Oc1c(F)cc3[nH]ccc3c1CCS(=O)(=O)CC(C)(C)CCC[C@]2(C)c1cccc(CC(C)(C)C(=O)O)c1` [Compound 291, 3-[3-[(6R)-22-fluoro-3,6,10,10-tetramethyl-12,12-dioxo-24-oxa-12λ6-thia-3,4,19,28,30-pentazapentacyclo[23.3.1.12,5.015,23.016,20]triaconta-1(29),2(30),4,15,17,20,22,25,27-nonaen-6-yl]phenyl]-2,2-dimethyl-propanoic Acid], the “DSLS 3D (100 μM ΔT)” value at NBD1 was “C (a value greater than 10 °C and less than or equal to 25 °C is marked “C”)”. The “TECC (AUC, 10 μM)” value at CFTR is “C (a value between 20 and 80 is marked “C”)”.

For `Cn1nc2nc1-c1cc(ccc1F)[S+]([O-])c1c(F)cc3[nH]ccc3c1CCS(=O)(=O)CC(C)(C)CCCC2(C)c1cccc(/C=C/C(=O)O)c1` (single isomer, unassigned) [Compound 210D, (E)-3-[3-(22,28-difluoro-3,6,10,10-tetramethyl-12,12,24-trioxo-12λ6,24λ4-dithia-3,4,19,30-tetrazapentacyclo[23.3.1.12,5.015,23.016,20]triaconta-1(29),2(30),4,15,17,20,22,25,27-nonaen-6-yl)phenyl]prop-2-enoic Acid], the “TECC (AUC, 10 μM)” value at CFTR was “C (a value between 20 and 80 is marked “C”)”.

For `C[C@H](Cc1cccc(C2(C)CCCC(C)(C)CS(=O)(=O)CCc3c(c(F)cc4[nH]ccc34)Oc3ccc(F)c(c3)-c3nc2nn3C)c1)C(=O)OCCN1CCN(C)CC1` (single isomer, unassigned) [Compound 182], the “TECC (AUC, 10 μM)” value on CFTR is “A (a TECC value less than 12 is marked “A”)”.

On to `Cn1nc2nc1-c1cc(ccc1F)[S+]([O-])c1c(F)cc3[nH]ccc3c1CCS(=O)(=O)CC(C)(C)CCCC2(C)c1cccc(/C=C/C(=O)O)c1` (single isomer, unassigned) [Compound 210A, (E)-3-[3-(22,28-difluoro-3,6,10,10-tetramethyl-12,12,24-trioxo-12λ6,24λ4-dithia-3,4,19,30-tetrazapentacyclo[23.3.1.12,5.015,23.016,20]triaconta-1(29),2(30),4,15,17,20,22,25,27-nonaen-6-yl)phenyl]prop-2-enoic Acid], for which the “TECC (AUC, 10 μM)” value at CFTR was “C (a value between 20 and 80 is marked “C”)”.

Turning to `Cn1nc2nc1-c1cc(ccc1F)[S+]([O-])c1c(F)cc3[nH]ccc3c1CCS(=O)(=O)CC(C)(C)CCCC2(C)c1cccc(/C=C/C(=O)O)c1` (single isomer, unassigned) [Compound 210C, (E)-3-[3-(22,28-difluoro-3,6,10,10-tetramethyl-12,12,24-trioxo-12λ6,24λ4-dithia-3,4,19,30-tetrazapentacyclo[23.3.1.12,5.015,23.016,20]triaconta-1(29),2(30),4,15,17,20,22,25,27-nonaen-6-yl)phenyl]prop-2-enoic Acid], on CFTR, the “TECC (AUC, 10 μM)” value is reported as “B (a value between 12-20 is marked “B”)”.

With `Cn1nc2nc1-c1cc(ccc1F)[S+]([O-])c1c(F)cc3[nH]ccc3c1CCS(=O)(=O)CC(C)(C)CCCC2(C)c1cccc(/C=C/C(=O)O)c1` (single isomer, unassigned) [Compound 210B, (E)-3-[3-(22,28-difluoro-3,6,10,10-tetramethyl-12,12,24-trioxo-12λ6,24λ4-dithia-3,4,19,30-tetrazapentacyclo[23.3.1.12,5.015,23.016,20]triaconta-1(29),2(30),4,15,17,20,22,25,27-nonaen-6-yl)phenyl]prop-2-enoic Acid], the “TECC (AUC, 10 μM)” value at CFTR is “A (a TECC value less than 12 is marked “A”)”.
